Data set [1] relates to pancreatic adenocarcinoma human cell lines (MPanc-96, HPAF-II, PA-TU-8902, SW1990, PA-TU 8988T, PANC-1). Format: cell-based. The following applies: cancer cell lines versus hTERT-RPE, MTS. How it is done: Cells cultured in 10% FCS were treated with compound (I) in a dose range from 0 to 25 µM and incubated for 24 h, when cell viability was determined by MTS assay. Experiment was repeated 3 times. Differences were assessed using one-way ANOVA and Tukey Multiple Comparisons Test and considered significant when p≤0.05.
10,000 cells in 50 μL of 10% FBS-containing medium, were cultured for 24 h and then treated with the drugs (50 μL final volume) for a further 24 h in each well of a 96-well plate (100 μL final volume). MTS viability assay (CellTiter 96® Aqueous One Solution Cell Proliferation Assay, Promega G3580) was performed following the manufacturer's specifications. The absorbance of each well was measured with a multimode plate reader (Spark, Tecan) at 490 nm. The percentage of cell viability was calculated by dividing the absorbance of each well by the average absorbance of the control wells (which had no significant deviation when Student's t-test was applied).
We next incubated IPR-473 at several concentrations with different cancer cell lines and a normal cell line (-hTERT-RPE cells). Cell viability was measured by a MTS cell proliferation assay. […] Cells were placed in a 96-well plate culture containing 10% FBS (Bilogical Industries)-containing medium. (10000 cell per well). These cells were then cultured for 24 hours and then treated with IPR-473 at concentrations of 10 μM, 15 μM, 20 μM and 25 μM for a further 24 hours incubation.
The different cell lines used included human pancreatic cancer cells MPANC-96, human pancreatic adenocarcinoma cells HPAF-II, human pancreatic grade II adenocarcinoma PA-TU, human pancreatic ductaladenocarcinoma SW1990, human pancreas adenocarcinoma 8988-T and human pancreatic ductal carcinoma PANC-1. Each of these comprises a pancreatic tumor cell line. The control as stated was hTERT-RPE cells and that are not cancerigenous.

The nature of the next data set: PAMPA assay. Format: in vitro ADME. The following applies: for Pe / Retention %: mean±SD. An excerpt: As part of our analysis, we evaluated IP-14-01, IP-14-03 and IP-14-08 and their biophysical properties by studying them using a solution of 5% DMSO in water. We conducted a permeability through biological barriers (PAMPA assay) and their internalization in SH-SY5Y cells.
(§1) The methods used are well known and would be known to one of skill in the art. As a control, we evaluated the solubility in water which contained 5% DMSO to identify any possible issue related with a low solubility. Data are expressed as the mean±SD.
In general terms: PAMPA measures passive passage across an artificial lipid membrane.

The test system of data set [2] is Ras signaling pathway (Raf/ERK and PI3K/AKT). The experiment in a line: Western blot of RAS signaling pathways in EGF-stimulated serum starved hTERT-RPE cells. Format: cell-based, human. The following applies: 50 μM, 0.5% DMSO, 2 h before EGF 50 ng/mL 10 min. How it is done: Cells were seeded in a media containing 10% FBS for 24 hours and were serum starved (0.5%) for the next 24 hours. Afterwards, they were incubated with different concentrations of the compounds for 2 hours. A successive treatment for 10 minutes with EGF (50 ng/mL) (Sigma-Aldrich) was performed in order to activate cell signaling.
Proteins were resolved by SDS-PAGE and transferred onto PVDF membranes (Immobilon-P, Millipore). Non-specific binding of the antibodies was assessed by incubating the membranes for 1 hour at room temperature with a buffer composed of 20 mM Tris-HCl pH 7.5, 150 mM NaCl, 0.05% Tween 20 and 5% bovine serum albumin. Protein expression was determined by probing the blots overnight at 4° C. with the specified antibodies:anti-c-RAF (BD Transduction 610151, 1:500); anti-phospho-c-RAF S338 (Cell Signaling 9427, 1:500); anti-PI3Kp110a (Cell Signaling 4249, 1:1000); anti-AKT (Cell Signaling 9272, 1:1000); anti-phospho-AKT S473 (Cell Signaling 4060, 1:1000); anti-phospho-AKT Thr308 (Cell Signaling 4056, 1:1000); anti-p44/42 MAPK (ERK1/2) (Cell Signaling 9102, 1:2000); anti-phospho-p44/42 MAPK(ERK1/2) T202/Y204 (Cell Signaling 4370, 1:2000); anti-GAP120 (Santa Cruz SC-63, 1:200); anti-HA (Sigma-Aldrich H6908, 1:1000); or anti-α-tubulin (Sigma-Aldrich T9026, 1:2000). Next, after washing the membranes they were incubated with the corresponding HRP-coupled secondary antibodies (goat anti-rabbit BioRad 170-6515 or goat anti-mouse BioRad 170-6516, 1:3000) for 60 minutes at room temperature and washed again. Protein detection was performed by enhanced chemiluminescence (EZ-ECL, Biological Industries). Emitted light was captioned and quantified (ChemiDoc, BioRad).
For analysis of RAS signalling, cells were lysed in a buffer containing 67 mM Tris-HCl pH 6.8 and 2% SDS and then the samples were heated at 97° C. for 15 minutes. After this, the protein concentration of the lysates was assayed using the Lowry method. An aliquot of 15 μg of protein per sample was loaded onto the gels.
GAP120 detection was used as control.
To consider a peptidomimetic as a positive hit, it should inhibit the activity of the two protein cascades, and as a consequence the phosphorylation of the RAF (P-RAF), AKT (P-AKT) and ERK (P-ERK) should not be observed.
A general note: A western blot detects proteins with antibodies after separation by electrophoresis.

The nature of data set [3]: Solubility in water at 5% DMSO. Format: physicochemical.
Text: as §1

A short description of data set [4]: Solubility in PBS with 15% β-cyclodextrin. Format: physicochemical. The following applies: 1 mM, 24 hours agitation, supernatant by HPLC; mean±SD. How it is done:
xxxxx Furthermore, an additional effort was done to reevaluate those peptidomimetics from the first generation that were not soluble in the in vitro assay conditions or formed aggregates as described above when incubated with the RPE cells.
We then put these peptidomimetics under constant agitation for 24 hours. […] Data are expressed as the mean±SD.

The results in this text go back to US20240327456A1, “CANCER THERAPEUTICS” (UNIVERSITAT DE BARCELONA, priority 2021, published 2024).

In brackets after ≈: the same amount, converted by molar mass. Entries after “also recorded” stand apart in the source; their conditions may differ. Like-named read-outs stand apart in the source and are kept apart here. Numbered stars: 1 amine (or outer) side, 2 acyl side, 3 side chain; on linkers, the order of the positions; unused ones are H or OH. Square brackets hold non-standard residues; d marks the D form. Peptide text beside a SMILES is read from it. * marks the point of attachment. Diphenylacetyl = O=C(C(c1ccccc1)c1ccccc1)*; Phe(4-Me) = Cc1ccc(C[CH](N)C(=O)O)cc1; NMeβAla = CN(CCC(=O)[*:2])[*:1]; Cha = N[CH](CC1CCCCC1)C(=O)O; Chg = N[CH](C(=O)O)C1CCCCC1; X1 = C1CCC2(CC1)CCN(*)CC2; Dab = NCC[CH](N)C(=O)O; Bz = O=C(c1ccccc1)*

What is called solubility is how much of the substance goes into solution per volume. On to `CC(NC(=O)C(CN)NC(=O)CCN(C)C(=O)C(Cc1ccc(-c2ccccc2)cc1)NC(=O)C(c1ccccc1)c1ccccc1)C(=O)N1CCCC1` (stereo not shown) [IP-14-01], for which the “specificity cancer cells versus normal cells (cell viability)” value in data set [1] is reported as “did not show cell-line specificity”. For the same molecule, in the data set “PAMPA assay”, the Transport % stood at 0%, the Pe came to 5.6e-10 ± 3.1e-10 cm/s and the Retention % was determined as 55.7 ± 7.1%. Also, the “Inhibition of RAS-effectors protein cascades (P-RAF, P-AKT, P-ERK) by Western blot” value in data set [2] is recorded as “able to inhibit the two RAS-effectors protein cascades; also recorded: most potent inhibitor”. Moreover, in data set [3], the “Solubility (in words)” value is “good solubility” and the concentration in solution (solubility) came to 1333 ± 13 µM (≈ 974 µg/mL).
Regarding `NCCCCC(NC(=O)C(Cc1ccccc1)NC(=O)C(CC1CCCC1)NC(=O)c1c2ccccc2cc2ccccc12)C(=O)N1CCCC1` (stereo not shown) [IP-14-02], the “Inhibition of RAS-effectors protein cascades (P-RAF, P-AKT, P-ERK) by Western blot” value in data set [2] is “able to inhibit the RAF and AKT but not ERK”.
As for `CC(NC(=O)C(NC(=O)CCN(C)C(=O)C(CN)NC(=O)C(c1ccccc1)c1ccccc1)C1CCCCC1)C(=O)N1CCC2(CCCCC2)CC1` (stereo not shown) [IP-14-03], in the data set “PAMPA assay”, the Transport % turned out to be 0%, the Pe came to 1.6e-09 ± 3.6e-10 cm/s and the Retention % turned out to be 77.9 ± 2.4%. Further, the “Inhibition of RAS-effectors protein cascades (P-RAF, P-AKT, P-ERK) by Western blot” value in data set [2] is “able to inhibit the two RAS-effectors protein cascades”. For the same molecule, in data set [3], the “Solubility (in words)” value is “good solubility” and the concentration in solution (solubility) came to 549 ± 90 µM (≈ 400 µg/mL).
In the case of `CC(C)CC(NC(=O)CCCN(C)C(=O)C(CCCN)NC(=O)C(Cc1cccc2ccccc12)NC(=O)c1c2ccccc2cc2ccccc12)C(=O)N1CCC2(CCCCC2)CC1` (stereo not shown) [IP-14-04], the “Conc. in PBS β-cyclodextrin 15%” value in data set [4] is 780 ± 30 µM.
Take `CC(C)CC(NC(=O)COc1ccc(C(C)(C)C)cc1)C(=O)NC(Cc1cccc2ccccc12)C(=O)NC(CCCCN)C(=O)N1CCCCC1` (stereo not shown) [IP-14-05]: the “Conc. in PBS β-cyclodextrin 15%” value in data set [4] is 849 ± 43 µM.
Take `CCC(C)C(NC(=O)C(c1ccccc1)c1ccccc1)C(=O)NC(CCc1ccccc1)C(=O)NC(CCCCN)C(=O)N1CCC2(CCCCC2)CC1` (stereo not shown) [IP-14-07]: the “Conc. in PBS β-cyclodextrin 15%” value in data set [4] stood at 766 ± 19 µM.
In the data set “PAMPA assay”, `CC(C)CC(NC(=O)C(Cc1ccccc1)NC(=O)C1CCCN1C(=O)C(CCN)NC(=O)c1ccccc1)C(=O)N1CCC2(CCCCC2)CC1` (stereo not shown) [IP-14-08] (Bz-[Dab]PFL-X1; configuration not given here) returned a Transport % of 0%, a Pe of 0 cm/s and a Retention % of 97.6 ± 5.0%. Further, the “Inhibition of RAS-effectors protein cascades (P-RAF, P-AKT, P-ERK) by Western blot” value in data set [2] is on record as “able to inhibit the two RAS-effectors protein cascades”. Also, the “Solubility (in words)” value in data set [3] (water at 5% DMSO) was “good solubility”. For the same molecule, the solubility in data set [3] (water at 5% DMSO, mean±SD, read-out: Solubility) was determined as 1320 ± 22 µM (≈ 942 µg/mL).
In the case of `CC(C)CC(NC(=O)COc1ccc(C(C)(C)C)cc1)C(=O)NC(Cc1cccc2ccccc12)C(=O)NC(CN)C(=O)N1CCC2(CCCCC2)CC1` (stereo not shown) [IP-14-09], the “Conc. in PBS β-cyclodextrin 15%” value in data set [4] turned out to be 949 ± 8 µM.
Turning to `Cc1ccc(CC(NC(=O)C(c2ccccc2)c2ccccc2)C(=O)N(C)CCC(=O)NC(CC2CCCCC2)C(=O)NC(C(=O)N2CCCC2C(N)=O)C2CCCCC2)cc1` (stereo not shown) [IPR-471] (Diphenylacetyl-[Phe(4-Me)][NMeβAla][Cha][Chg]P-NH2; configuration not given here), the “Inhibition of RAS-effectors protein cascades (P-RAF, P-AKT, P-ERK) by Western blot” value in data set [2] is “not better than IP-14-01”.
Turning to `CC(C)CC(NC(=O)C(CN)N(C)C(=O)CCN(C)C(=O)C(Cc1ccc(-c2ccccc2)cc1)NC(=O)C(c1ccccc1)c1ccccc1)C(=O)N1CCCC1` (stereo not shown) [IPR-473], in data set [1], the “specificity cancer cells versus normal cells (cell viability)” value is listed as “high specificity for pancreatic cancer cell lines”. For the same molecule, the “Inhibition of RAS-effectors protein cascades (P-RAF, P-AKT, P-ERK) by Western blot” value in data set [2] is “able to inhibit all the two different protein cascades (RAF/ERK and PI3K/AKT) more effectively than even IP-14-01; also recorded: highest degree of inhibition of the RAS effectors”.
As to `CC(O)C(NC(=O)CCN(C)C(=O)C(Cc1ccc(-c2ccccc2)cc1)NC(=O)C(c1ccccc1)c1ccccc1)C(=O)NC(C(=O)N1CCCC1)C1CCCCC1` (stereo not shown) [IPR-474], in data set [2], the “Inhibition of RAS-effectors protein cascades (P-RAF, P-AKT, P-ERK) by Western blot” value is given as “not better than IP-14-01”.
